From ChEMBL document CHEMBL5465560, “Selectivity Literature for EUbOPEN Chemogenomic Library” (2024)
Blank lines part the entries; values can stand above or below the molecule they belong to.

What was measured:
[1] = target: Cyclin-dependent kinase 2 (Homo sapiens, UniProt P24941); assay: Selectivity interaction (Kinase panel (Invitrogen, enzymatic assay)) EUB0000623aCl CDK2
[2] = target: Epidermal growth factor receptor (Homo sapiens, UniProt P00533); assay: Selectivity interaction (Kinase panel (Invitrogen, enzymatic assay)) EUB0000623aCl EGFR
Ephrin type-A receptor 3 = Ephrin type-A receptor 3 (Homo sapiens, UniProt P29320); assay: Selectivity interaction (Kinase panel (Invitrogen, enzymatic assay)) EUB0000623aCl EPHA3
[3] = target: Receptor tyrosine-protein kinase erbB-4 (Homo sapiens, UniProt Q15303); assay: Selectivity interaction (Kinase panel (Invitrogen, enzymatic assay)) EUB0000623aCl ERBB4
[4] = target: Glycogen synthase kinase-3 beta (Homo sapiens, UniProt P49841); assay: Selectivity interaction (Kinase panel (Invitrogen, enzymatic assay)) EUB0000623aCl GSK3B
[5] = target: Inhibitor of nuclear factor kappa-B kinase subunit beta (Homo sapiens, UniProt O14920); assay: Selectivity interaction (Kinase panel (Invitrogen, enzymatic assay)) EUB0000623aCl IKBKB
[6] = target: Mitogen-activated protein kinase kinase kinase 1 (Homo sapiens, UniProt Q13233); assay: Selectivity interaction (Kinase panel (Invitrogen, enzymatic assay)) EUB0000623aCl MAP3K1
[7] = target: Mitogen-activated protein kinase kinase kinase 7 (Homo sapiens, UniProt O43318); assay: Selectivity interaction (Kinase panel (Invitrogen, enzymatic assay)) EUB0000623aCl MAP3K7
[8] = target: T1, Mitogen-activated protein kinase 14 (Homo sapiens, UniProt Q16539); assay: (§1) Selectivity interaction (Kinase panel (Invitrogen, enzymatic assay)) EUB0000623aCl MAPK14
[9] = target: T1, Mitogen-activated protein kinase 14; assay: as §1; remark: listed apart in the source
[10] = target: Mitogen-activated protein kinase 3 (Homo sapiens, UniProt P27361); assay: Selectivity interaction (Kinase panel (Invitrogen, enzymatic assay)) EUB0000623aCl MAPK3
[11] = target: Mitogen-activated protein kinase 8 (Homo sapiens, UniProt P45983); assay: Selectivity interaction (Kinase panel (Invitrogen, enzymatic assay)) EUB0000623aCl MAPK8
[12] = target: Protein kinase C theta type (Homo sapiens, UniProt Q04759); assay: Selectivity interaction (Kinase panel (Invitrogen, enzymatic assay)) EUB0000623aCl PRKCQ
[13] = target: Macrophage-stimulating protein receptor (Homo sapiens, UniProt Q04912); assay: Selectivity interaction (Kinase panel (Invitrogen, enzymatic assay)) EUB0000623aCl MST1R
[14] = target: Voltage-dependent L-type calcium channel subunit alpha-1C (Homo sapiens, UniProt Q13936); assay: Selectivity interaction (CEREP selectivity screen) EUB0000318b CACNA1C; conditions: at 10 µM
[15] = target: T2, 4-aminobutyrate aminotransferase, mitochondrial (Homo sapiens, UniProt P80404); assay: (§2) Selectivity interaction (GPCR panel (PDSP screen)) EUB0000318b ABAT
[16] = target: T2, 4-aminobutyrate aminotransferase, mitochondrial; assay: as §2; conditions: at 10 µM
[17] = target: 5-hydroxytryptamine receptor 2A (Homo sapiens, UniProt P28223); assay: Selectivity interaction (CEREP selectivity screen) EUB0000318b HTR2A; conditions: at 10 µM
[18] = target: T3, Mitogen-activated protein kinase kinase kinase 5 (Homo sapiens) (UniProt Q99683); assay: Selectivity interaction (KinomeScan (DiscoverX)) EUB0000318b MAP3K5; conditions: at 1 µM
T3 sequence (whole entry): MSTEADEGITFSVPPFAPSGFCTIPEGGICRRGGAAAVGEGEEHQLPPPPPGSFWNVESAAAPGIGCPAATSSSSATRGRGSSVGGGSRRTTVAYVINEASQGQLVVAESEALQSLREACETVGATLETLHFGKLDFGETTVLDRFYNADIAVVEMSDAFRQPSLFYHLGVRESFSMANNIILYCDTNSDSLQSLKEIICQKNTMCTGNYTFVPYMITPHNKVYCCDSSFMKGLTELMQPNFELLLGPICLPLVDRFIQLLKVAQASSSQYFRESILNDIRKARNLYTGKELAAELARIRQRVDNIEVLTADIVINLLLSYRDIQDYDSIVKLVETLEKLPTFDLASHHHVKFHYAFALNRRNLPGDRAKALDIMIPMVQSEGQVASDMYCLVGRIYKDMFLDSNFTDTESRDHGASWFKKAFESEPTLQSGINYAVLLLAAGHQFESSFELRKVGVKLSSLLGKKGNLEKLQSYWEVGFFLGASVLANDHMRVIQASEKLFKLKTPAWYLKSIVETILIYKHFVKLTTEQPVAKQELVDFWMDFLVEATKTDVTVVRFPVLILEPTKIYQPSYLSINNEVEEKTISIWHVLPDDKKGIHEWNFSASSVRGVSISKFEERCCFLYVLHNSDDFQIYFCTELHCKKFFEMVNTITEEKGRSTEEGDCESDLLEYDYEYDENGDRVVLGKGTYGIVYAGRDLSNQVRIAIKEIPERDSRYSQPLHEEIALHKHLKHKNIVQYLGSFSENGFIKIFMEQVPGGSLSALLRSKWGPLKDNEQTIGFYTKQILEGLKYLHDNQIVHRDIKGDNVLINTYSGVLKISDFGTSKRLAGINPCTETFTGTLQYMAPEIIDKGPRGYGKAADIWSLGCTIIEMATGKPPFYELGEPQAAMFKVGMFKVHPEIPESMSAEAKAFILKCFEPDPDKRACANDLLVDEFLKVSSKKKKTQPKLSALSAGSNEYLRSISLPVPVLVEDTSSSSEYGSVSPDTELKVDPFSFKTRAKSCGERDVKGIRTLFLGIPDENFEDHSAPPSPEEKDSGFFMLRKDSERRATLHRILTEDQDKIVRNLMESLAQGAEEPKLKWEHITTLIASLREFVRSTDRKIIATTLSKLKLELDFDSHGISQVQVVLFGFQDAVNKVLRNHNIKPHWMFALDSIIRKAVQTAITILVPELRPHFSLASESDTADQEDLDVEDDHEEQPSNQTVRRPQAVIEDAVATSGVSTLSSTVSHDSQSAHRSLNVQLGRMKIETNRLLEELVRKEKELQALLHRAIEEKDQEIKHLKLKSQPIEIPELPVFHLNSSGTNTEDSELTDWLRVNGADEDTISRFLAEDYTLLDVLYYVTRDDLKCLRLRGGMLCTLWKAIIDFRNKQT

[19] = target: T4, Serine/threonine-protein kinase Nek1 (Homo sapiens) (UniProt Q96PY6); assay: Selectivity interaction (KinomeScan (DiscoverX)) EUB0000318b NEK1; conditions: at 1 µM
T4 sequence (whole entry): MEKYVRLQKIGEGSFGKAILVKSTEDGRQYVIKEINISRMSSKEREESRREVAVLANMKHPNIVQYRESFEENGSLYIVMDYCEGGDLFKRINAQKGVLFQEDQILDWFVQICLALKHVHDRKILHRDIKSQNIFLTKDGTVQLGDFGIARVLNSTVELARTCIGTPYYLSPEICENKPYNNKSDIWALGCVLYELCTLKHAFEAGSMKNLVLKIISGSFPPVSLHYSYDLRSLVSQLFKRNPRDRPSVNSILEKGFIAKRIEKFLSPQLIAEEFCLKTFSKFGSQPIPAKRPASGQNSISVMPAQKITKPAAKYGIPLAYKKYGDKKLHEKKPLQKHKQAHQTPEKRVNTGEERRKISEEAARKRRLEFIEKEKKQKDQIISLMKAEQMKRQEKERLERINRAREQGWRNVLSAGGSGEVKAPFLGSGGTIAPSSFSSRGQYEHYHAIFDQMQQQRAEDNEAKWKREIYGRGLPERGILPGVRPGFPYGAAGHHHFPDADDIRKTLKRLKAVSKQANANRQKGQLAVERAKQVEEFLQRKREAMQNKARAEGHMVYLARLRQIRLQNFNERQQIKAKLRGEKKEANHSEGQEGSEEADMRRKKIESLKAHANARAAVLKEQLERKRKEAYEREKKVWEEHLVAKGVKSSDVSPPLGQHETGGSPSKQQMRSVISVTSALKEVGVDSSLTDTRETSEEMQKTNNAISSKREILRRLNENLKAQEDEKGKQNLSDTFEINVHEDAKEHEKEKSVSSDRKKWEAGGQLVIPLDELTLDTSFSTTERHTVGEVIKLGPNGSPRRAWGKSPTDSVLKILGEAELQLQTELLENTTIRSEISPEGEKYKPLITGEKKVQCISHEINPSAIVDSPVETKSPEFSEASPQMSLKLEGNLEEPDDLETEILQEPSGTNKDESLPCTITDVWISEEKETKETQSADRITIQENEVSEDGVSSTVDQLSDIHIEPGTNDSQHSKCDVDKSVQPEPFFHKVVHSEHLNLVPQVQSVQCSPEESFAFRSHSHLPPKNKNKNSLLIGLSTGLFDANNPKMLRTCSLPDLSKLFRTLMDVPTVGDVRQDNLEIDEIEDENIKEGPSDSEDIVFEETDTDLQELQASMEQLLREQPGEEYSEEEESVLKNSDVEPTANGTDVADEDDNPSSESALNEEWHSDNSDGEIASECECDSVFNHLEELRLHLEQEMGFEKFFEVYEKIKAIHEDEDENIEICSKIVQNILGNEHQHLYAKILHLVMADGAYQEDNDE

[20] = target: Sodium channel regulatory subunit beta-1 (Homo sapiens) (UniProt Q07699); assay: Selectivity interaction (CEREP selectivity screen) EUB0000318b SCN1B; conditions: at 10 µM
[21] = target: Sigma non-opioid intracellular receptor 1 (Homo sapiens) (UniProt Q99720); assay: Selectivity interaction (GPCR panel (PDSP screen)) EUB0000318b SIGMAR1; conditions: at 10 µM
[22] = target: Sodium-dependent noradrenaline transporter (Homo sapiens, UniProt P23975); assay: Selectivity interaction (CEREP selectivity screen) EUB0000318b SLC6A2; conditions: at 10 µM

T1 sequence (Q16539 whole entry): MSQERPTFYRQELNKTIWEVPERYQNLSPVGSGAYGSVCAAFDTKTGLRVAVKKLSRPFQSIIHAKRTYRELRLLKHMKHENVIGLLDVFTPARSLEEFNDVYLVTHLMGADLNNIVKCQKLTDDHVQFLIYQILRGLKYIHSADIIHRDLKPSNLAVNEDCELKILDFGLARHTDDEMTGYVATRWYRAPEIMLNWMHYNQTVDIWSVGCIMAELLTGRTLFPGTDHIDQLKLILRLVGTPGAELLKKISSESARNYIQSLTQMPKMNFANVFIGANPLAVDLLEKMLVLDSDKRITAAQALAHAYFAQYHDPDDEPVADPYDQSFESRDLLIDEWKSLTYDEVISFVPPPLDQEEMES
T2 sequence (P80404 whole entry): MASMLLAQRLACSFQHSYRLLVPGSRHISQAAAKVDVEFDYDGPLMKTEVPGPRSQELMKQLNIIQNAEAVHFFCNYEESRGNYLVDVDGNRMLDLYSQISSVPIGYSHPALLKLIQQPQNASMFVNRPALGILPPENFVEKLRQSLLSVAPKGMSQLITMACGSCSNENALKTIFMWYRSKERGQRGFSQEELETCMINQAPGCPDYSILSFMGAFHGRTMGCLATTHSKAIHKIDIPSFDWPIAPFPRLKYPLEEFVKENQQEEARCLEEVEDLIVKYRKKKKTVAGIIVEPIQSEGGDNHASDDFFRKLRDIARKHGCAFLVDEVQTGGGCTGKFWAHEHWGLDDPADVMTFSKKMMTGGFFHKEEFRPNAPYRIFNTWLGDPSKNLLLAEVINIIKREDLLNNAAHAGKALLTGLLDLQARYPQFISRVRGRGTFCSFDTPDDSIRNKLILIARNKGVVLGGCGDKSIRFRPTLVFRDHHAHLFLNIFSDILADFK
Sequence of Sodium channel regulatory subunit beta-1 (Homo sapiens) (Q07699 whole entry): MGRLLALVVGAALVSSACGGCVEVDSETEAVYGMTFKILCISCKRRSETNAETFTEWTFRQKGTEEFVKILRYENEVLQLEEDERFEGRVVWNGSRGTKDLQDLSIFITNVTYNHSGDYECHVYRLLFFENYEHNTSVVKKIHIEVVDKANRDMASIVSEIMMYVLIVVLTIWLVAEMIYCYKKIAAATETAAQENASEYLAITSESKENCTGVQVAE
Sequence of Protein kinase C theta type (Q04759 whole entry): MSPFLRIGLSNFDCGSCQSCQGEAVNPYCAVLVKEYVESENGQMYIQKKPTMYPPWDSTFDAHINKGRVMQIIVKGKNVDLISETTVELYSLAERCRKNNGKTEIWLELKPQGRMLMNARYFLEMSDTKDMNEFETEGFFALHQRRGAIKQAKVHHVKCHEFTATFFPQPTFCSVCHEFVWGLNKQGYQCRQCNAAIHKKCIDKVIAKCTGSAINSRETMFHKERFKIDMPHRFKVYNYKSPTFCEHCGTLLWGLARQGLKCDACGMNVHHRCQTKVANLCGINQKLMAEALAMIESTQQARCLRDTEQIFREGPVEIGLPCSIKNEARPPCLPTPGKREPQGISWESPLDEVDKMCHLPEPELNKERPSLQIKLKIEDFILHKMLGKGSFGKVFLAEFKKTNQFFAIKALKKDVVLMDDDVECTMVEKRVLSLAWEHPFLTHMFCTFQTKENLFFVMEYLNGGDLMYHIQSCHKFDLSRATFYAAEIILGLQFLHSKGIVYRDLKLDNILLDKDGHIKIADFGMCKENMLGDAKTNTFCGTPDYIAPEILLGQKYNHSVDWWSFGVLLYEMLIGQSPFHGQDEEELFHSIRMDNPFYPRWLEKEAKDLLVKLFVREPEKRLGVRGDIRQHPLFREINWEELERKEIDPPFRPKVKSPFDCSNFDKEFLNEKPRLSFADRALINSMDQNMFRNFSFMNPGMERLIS
Sequence of Ephrin type-A receptor 3 (P29320 whole entry): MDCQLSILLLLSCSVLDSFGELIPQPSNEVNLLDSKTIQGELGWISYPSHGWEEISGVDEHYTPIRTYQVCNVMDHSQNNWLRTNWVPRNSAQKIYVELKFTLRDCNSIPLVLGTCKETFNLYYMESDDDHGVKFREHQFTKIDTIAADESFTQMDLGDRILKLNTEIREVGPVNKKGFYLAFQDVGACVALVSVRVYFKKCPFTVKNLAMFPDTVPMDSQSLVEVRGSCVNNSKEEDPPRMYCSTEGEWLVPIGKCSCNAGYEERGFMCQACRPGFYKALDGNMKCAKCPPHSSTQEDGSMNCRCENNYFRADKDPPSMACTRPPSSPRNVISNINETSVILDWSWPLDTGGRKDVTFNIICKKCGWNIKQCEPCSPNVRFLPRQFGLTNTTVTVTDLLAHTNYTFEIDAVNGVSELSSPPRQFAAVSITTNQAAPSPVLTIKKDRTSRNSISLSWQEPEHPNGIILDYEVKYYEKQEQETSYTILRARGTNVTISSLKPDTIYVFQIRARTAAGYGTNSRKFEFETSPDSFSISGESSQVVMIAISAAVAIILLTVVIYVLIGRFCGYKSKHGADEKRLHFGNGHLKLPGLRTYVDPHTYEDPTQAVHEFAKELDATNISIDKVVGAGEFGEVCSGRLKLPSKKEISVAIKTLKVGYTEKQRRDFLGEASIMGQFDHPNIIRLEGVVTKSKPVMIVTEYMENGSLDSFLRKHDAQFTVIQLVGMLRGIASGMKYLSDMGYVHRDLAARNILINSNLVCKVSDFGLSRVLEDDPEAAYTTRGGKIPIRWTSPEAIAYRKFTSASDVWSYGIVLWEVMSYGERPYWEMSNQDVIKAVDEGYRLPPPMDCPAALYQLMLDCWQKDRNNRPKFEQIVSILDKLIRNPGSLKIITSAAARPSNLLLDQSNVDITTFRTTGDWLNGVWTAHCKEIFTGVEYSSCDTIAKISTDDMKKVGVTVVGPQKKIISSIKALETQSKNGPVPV
Sequence of Macrophage-stimulating protein receptor (Q04912 25-304 limits assumed): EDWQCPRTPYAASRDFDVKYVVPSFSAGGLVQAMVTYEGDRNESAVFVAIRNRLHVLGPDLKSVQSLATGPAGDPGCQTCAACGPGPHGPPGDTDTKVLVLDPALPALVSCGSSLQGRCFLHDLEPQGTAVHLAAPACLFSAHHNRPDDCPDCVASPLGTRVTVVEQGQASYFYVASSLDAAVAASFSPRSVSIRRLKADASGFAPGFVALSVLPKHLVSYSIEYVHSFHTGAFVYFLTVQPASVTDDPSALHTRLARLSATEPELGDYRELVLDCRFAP
Sequence of Macrophage-stimulating protein receptor (Q04912 310-1400 limits assumed): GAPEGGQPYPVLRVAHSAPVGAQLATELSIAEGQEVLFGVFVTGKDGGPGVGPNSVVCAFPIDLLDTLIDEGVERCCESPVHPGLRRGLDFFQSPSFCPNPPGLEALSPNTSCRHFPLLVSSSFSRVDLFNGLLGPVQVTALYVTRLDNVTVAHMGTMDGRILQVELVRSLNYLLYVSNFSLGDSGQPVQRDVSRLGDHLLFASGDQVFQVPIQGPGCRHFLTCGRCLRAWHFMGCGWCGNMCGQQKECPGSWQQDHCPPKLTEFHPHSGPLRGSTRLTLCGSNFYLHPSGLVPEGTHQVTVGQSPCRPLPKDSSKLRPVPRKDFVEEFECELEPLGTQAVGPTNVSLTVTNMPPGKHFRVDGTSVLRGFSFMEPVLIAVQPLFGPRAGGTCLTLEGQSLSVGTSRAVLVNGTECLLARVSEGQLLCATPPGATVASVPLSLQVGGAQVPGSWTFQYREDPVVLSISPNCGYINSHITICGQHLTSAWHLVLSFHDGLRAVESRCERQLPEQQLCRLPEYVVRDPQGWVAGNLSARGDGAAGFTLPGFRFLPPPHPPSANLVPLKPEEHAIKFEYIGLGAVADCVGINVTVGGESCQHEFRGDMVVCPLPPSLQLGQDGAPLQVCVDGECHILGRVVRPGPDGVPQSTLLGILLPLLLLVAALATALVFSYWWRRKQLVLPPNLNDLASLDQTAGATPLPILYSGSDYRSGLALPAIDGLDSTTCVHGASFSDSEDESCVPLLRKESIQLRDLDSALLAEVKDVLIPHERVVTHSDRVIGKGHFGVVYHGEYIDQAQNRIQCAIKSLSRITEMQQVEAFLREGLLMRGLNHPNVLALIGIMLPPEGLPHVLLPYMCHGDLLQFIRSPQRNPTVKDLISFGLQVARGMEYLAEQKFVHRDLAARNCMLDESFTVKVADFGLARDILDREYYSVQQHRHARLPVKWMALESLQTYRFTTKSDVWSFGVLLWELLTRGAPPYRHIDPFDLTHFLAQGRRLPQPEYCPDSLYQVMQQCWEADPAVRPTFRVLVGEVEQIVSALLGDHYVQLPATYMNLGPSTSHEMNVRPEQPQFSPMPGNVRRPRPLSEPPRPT
Sequence of Sigma non-opioid intracellular receptor 1 (Homo sapiens) (Q99720 whole entry): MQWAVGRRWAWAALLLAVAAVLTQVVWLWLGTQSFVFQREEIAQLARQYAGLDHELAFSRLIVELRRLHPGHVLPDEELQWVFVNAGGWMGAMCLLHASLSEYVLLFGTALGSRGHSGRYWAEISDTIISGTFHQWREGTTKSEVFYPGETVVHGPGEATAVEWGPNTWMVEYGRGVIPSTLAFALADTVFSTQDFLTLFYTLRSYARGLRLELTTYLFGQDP
Sequence of Mitogen-activated protein kinase 8 (P45983 whole entry): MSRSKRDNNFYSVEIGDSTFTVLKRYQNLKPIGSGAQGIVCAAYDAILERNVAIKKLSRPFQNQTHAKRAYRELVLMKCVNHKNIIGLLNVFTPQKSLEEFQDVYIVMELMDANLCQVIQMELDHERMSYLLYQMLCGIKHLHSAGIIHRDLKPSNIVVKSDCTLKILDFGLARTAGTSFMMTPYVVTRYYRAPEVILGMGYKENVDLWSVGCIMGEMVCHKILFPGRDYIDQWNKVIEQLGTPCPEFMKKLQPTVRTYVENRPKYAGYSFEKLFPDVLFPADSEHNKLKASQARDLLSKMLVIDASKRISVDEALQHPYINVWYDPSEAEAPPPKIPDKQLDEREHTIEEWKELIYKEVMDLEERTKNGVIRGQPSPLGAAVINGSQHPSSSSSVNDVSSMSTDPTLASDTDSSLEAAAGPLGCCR

- IC50 [1]: 0.158 µM
- IC50 [2]: > 20 µM
- IC50 (Ephrin type-A receptor 3): > 20 µM
- IC50 [3]: > 20 µM
- IC50 [4]: > 10 µM
- IC50 [5]: > 10 µM
- IC50 [6]: > 10 µM
- IC50 [7]: > 10 µM
- IC50 [8]: > 10 µM
- IC50 [9]: > 20 µM
- IC50 [10]: > 10 µM
- IC50 [11]: > 10 µM
- IC50 [12]: > 10 µM
- IC50 [13]: > 20 µM
SMILES: CC(C)(C)c1ccc(C(=O)Nc2cn3cc(-n4ccnc4)ccc3n2)cc1

- % of inhibition [14]: 80%
- Ki [15]: 2.56 µM
- % of inhibition [16]: 63.7%
- % of inhibition [17]: 55%
- % of control [18]: 13%
- % of control [19]: 44%
- % of inhibition [20]: 66%
- % of inhibition [21]: 51.2%
- % of inhibition [22]: 61%
SMILES: O=C(NC[C@@H]1[C@H]2CN(C(=O)OCc3cc(C(F)(F)F)cc(C(F)(F)F)c3)C[C@@H]12)c1ccc2[nH]nnc2c1 [BI 2545]
